Patent US8486719B2, “Multiplex assay methods and compositions” (PerkinElmer BioSignal, Inc., priority 2009, dated 2013)

What was measured:
[1] = biological target: MEK1 (Homo sapiens, UniProt Q02750); assay: One well multiplexed assay, 572 nm signal: ERK2 phosphorylation by MEK1 with increasing ATP; assay type: biochemical; details: signal detected at 572 nm, FIG. 4; read-out: EC50 for ATP-induced ERK2 phosphorylation
Text: (§1) The kinase MEK1 is expressed with a histidine tag (6×His) at either the C- or N-terminus.
(§2) An antibody which recognizes MEK1 phosphorylated ERK2 (mouse anti-pTpY ERK1/2) is associated with acceptor beads containing thioxene, 9,10-bis(phenylethynyl)anthracene and rubrene via anti-mouse IgG antibody binding. The antibody used, p-Tyr-100, is a generic highly promiscuous anti-phosphotyrosine antibody which recognizes both mono (pY) and dual-(pTpY) phosphorylated forms of ERK2.
(§3) Increasing concentrations of ATP were used to promote the phosphorylation of ERK2 by MEK1.

[2] = biological target: MEK1/ERK2 (Homo sapiens, UniProt Q02750); assay: One well multiplexed assay, 615 nm signal: interaction between MEK1 and ERK2 with increasing ATP; assay type: binding; details: signal detected at 615 nm, FIG. 4; read-out: EC50 for ATP-induced MEK1/ERK2 dissociation
MEK1/ERK2, sequence (Q02750 whole entry, species assumed): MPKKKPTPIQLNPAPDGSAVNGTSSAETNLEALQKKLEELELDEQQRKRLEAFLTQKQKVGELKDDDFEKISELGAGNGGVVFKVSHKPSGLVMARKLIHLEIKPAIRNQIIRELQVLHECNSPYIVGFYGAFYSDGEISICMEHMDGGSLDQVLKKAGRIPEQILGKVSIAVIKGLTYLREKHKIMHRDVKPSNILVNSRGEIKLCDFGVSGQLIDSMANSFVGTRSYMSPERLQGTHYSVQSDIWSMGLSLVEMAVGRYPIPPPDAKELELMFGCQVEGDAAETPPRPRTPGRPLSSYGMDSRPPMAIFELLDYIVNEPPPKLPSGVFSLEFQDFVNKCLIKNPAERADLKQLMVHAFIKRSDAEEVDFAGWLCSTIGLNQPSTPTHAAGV
Text: as §1, §2, §3

[3] = biological target: T1, human bombesin (hBombesin) 3 (Homo sapiens, UniProt P32247); assay: Surface expression of FLAG-tagged bombesin receptor on phthalocyanine-loaded cells, anti-FLAG acceptor beads; assay type: cell-based; details: 10 nM or 300 nM agonist, 1 hour at 37° C., Balb3T3 hBombesin 3 FLAG cells
T1 construct: expressed in transfected cells; host or cells: Balb3T3
T1 sequence (P32247 1-399): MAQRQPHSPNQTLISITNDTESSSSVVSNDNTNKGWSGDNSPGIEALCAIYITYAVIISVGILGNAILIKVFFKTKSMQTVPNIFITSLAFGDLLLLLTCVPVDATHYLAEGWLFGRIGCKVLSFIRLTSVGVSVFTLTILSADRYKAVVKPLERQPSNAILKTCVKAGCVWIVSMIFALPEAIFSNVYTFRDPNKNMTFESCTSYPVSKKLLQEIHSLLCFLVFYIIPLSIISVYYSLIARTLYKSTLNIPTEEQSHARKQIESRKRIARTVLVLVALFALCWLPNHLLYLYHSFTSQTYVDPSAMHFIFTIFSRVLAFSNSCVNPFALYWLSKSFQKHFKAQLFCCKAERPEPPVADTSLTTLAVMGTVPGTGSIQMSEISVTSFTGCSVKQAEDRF
Experimental: Bombesin receptor is a well-characterized cell surface receptor which is known to internalize and decrease in cell surface expression following agonist (bombesin) binding. Balb3T3 cells expressing human bombesin (hBombesin) 3 with a FLAG tag and Balb3T3 cells expressing human bombesin 3 without a FLAG tag were used to monitor the expression and binding activity of the bombesin receptor, GPCR in these cells.
About 10 nM or 300 nM of the Bombesin peptide agonist, (6-14)[D-tyr6, b-Ala11, Phe13, Nle14] was incubated with Balb3T3 hBombesin 3 FLAG cells and Balb3T3 hBombesin WT cells for 1 hour at 37° C. after which cells were harvested, labeled with 10 μM to 30 μM Al^3+-phthalocyanine. The phthalocyanine-loaded cells are washed several times in MES or HEPES buffer following the incubation to remove excess phthalocyanine. About 20 to 40 of the anti-FLAG antibody-conjugated acceptor beads including a thioxene and europium chelate emission system are added to the assay mix including MES or HEPES buffer and the phthalocyanine-loaded cells and incubated for 1 hour at room temperature. […] The FLAG-tagged hBombesin was detected with anti-FLAG Acceptor beads in the assay.

MEK1, sequence (Q02750 whole entry, species assumed): as the sequence (Q02750 whole entry, species assumed) above

EC50 [1] [nM] | EC50 [2] [nM] | Molecule | surface expression of the bombesin receptor following agonist stimulation [3]
~1000 | ~1000 | Nc1ncnc2c1ncn2[C@@H]1O[C@H](COP(=O)(O)OP(=O)(O)OP(=O)(O)O)[C@@H](O)[C@H]1O [ATP] | 
 |  | (6-14)[D-tyr6, b-Ala11, Phe13, Nle14] | Changes in surface expression of the bombesin receptor following agonist stimulation are detected
